Assay results reported in ChEMBL document CHEMBL3421628, “Discovery of Intestinal Targeted TGR5 Agonists for the Treatment of Type 2 Diabetes” (J Med Chem, 2015).

Legend:
in vitro [1] = settings: human, Caco-2
in vitro [2] = settings: human, Caco-2; remark: listed apart in the source
in vitro [3] = settings: human, Caco-2; remark: listed apart in the source
in vitro [4] = settings: human, Caco-2; remark: listed apart in the source
[5] = Tmax in Sprague-Dawley rat at 5 mg/kg, po by LC-MS/MS method; format: ADME, organism-based; set-up: dose 5 mg/kg, route oral; settings: in vivo
Rattus norvegicus [6] = assay: Tmax in Sprague-Dawley rat assessed as 3-(2,5-Dichloro-4-((3-(4-cyclopropyl-1,2,3,4-tetrahydroquinoxaline-1-carbonyl)pyridin-4-yl)oxy)phenyl)propanoic acid level at 5 mg/kg, po by LC-MS/MS method; format: ADME, organism-based; set-up: dose 5 mg/kg, route oral; settings: in vivo
[7] = Cmax in Sprague-Dawley rat at 5 mg/kg, po by LC-MS/MS method; format: ADME, organism-based; set-up: dose 5 mg/kg, route oral; settings: in vivo
Rattus norvegicus [8] = assay: Cmax in Sprague-Dawley rat assessed as 3-(2,5-Dichloro-4-((3-(4-cyclopropyl-1,2,3,4-tetrahydroquinoxaline-1-carbonyl)pyridin-4-yl)oxy)phenyl)propanoic acid level at 5 mg/kg, po by LC-MS/MS method; format: ADME, organism-based; set-up: dose 5 mg/kg, route oral; settings: in vivo
[9] = AUC (0 to t) in Sprague-Dawley rat at 5 mg/kg, po by LC-MS/MS method; format: ADME, organism-based; set-up: dose 5 mg/kg, route oral; settings: plasma
Rattus norvegicus [10] = assay: AUC (0 to t) in Sprague-Dawley rat assessed as 3-(2,5-Dichloro-4-((3-(4-cyclopropyl-1,2,3,4-tetrahydroquinoxaline-1-carbonyl)pyridin-4-yl)oxy)phenyl)propanoic acid level at 5 mg/kg, po by LC-MS/MS method; format: ADME, organism-based, Plasma; set-up: dose 5 mg/kg, route oral; settings: in vivo
[11] = AUC (0 to infinity) in Sprague-Dawley rat at 5 mg/kg, po by LC-MS/MS method; format: ADME, organism-based; set-up: time infinity, dose 5 mg/kg, route oral; settings: plasma
Rattus norvegicus [12] = assay: AUC (0 to infinity) in Sprague-Dawley rat assessed as 3-(2,5-Dichloro-4-((3-(4-cyclopropyl-1,2,3,4-tetrahydroquinoxaline-1-carbonyl)pyridin-4-yl)oxy)phenyl)propanoic acid level at 5 mg/kg, po by LC-MS/MS method; format: ADME, organism-based, Plasma; set-up: time infinity, dose 5 mg/kg, route oral; settings: in vivo
[13] = Mean residence time in Sprague-Dawley rat at 5 mg/kg, po by LC-MS/MS method; format: ADME, organism-based; set-up: dose 5 mg/kg, route oral; settings: in vivo
Rattus norvegicus [14] = assay: Mean residence time in Sprague-Dawley rat assessed as 3-(2,5-Dichloro-4-((3-(4-cyclopropyl-1,2,3,4-tetrahydroquinoxaline-1-carbonyl)pyridin-4-yl)oxy)phenyl)propanoic acid level at 5 mg/kg, po by LC-MS/MS method; format: ADME, organism-based; set-up: dose 5 mg/kg, route oral; settings: in vivo
[15] = Half life in Sprague-Dawley rat at 5 mg/kg, po by LC-MS/MS method; format: ADME, organism-based; set-up: dose 5 mg/kg, route oral; settings: in vivo
Rattus norvegicus [16] = assay: Half life in Sprague-Dawley rat assessed as 3-(2,5-Dichloro-4-((3-(4-cyclopropyl-1,2,3,4-tetrahydroquinoxaline-1-carbonyl)pyridin-4-yl)oxy)phenyl)propanoic acid level at 5 mg/kg, po by LC-MS/MS method; format: ADME, organism-based; set-up: dose 5 mg/kg, route oral; settings: in vivo
Rattus norvegicus [17] = assay: Drug level in Sprague-Dawley rat at 20 mg/kg, po after 15 mins to 24 hrs by LC-MS/MS method; format: ADME, organism-based; set-up: dose 20 mg/kg, route oral; settings: in vivo
Rattus norvegicus [18] = assay: Drug metabolism in Sprague-Dawley rat assessed as 3-(2,5-Dichloro-4-((3-(4-cyclopropyl-1,2,3,4-tetrahydroquinoxaline-1-carbonyl)pyridin-4-yl)oxy)phenyl)propanoic acid level at 20 mg/kg, po after 15 mins to 24 hrs by LC-MS/MS method; format: ADME, organism-based; set-up: dose 20 mg/kg, route oral; settings: in vivo
[19] = Drug level in ICR mouse gall bladder at 150 mg/kg, po after 4 hrs by LC-MS/MS method; format: ADME, organism-based; set-up: dose 150 mg/kg, route oral; settings: in vivo
[20] = Drug metabolism in ICR mouse gall bladder assessed as 3-(2,5-Dichloro-4-((3-(4-cyclopropyl-1,2,3,4-tetrahydroquinoxaline-1-carbonyl)pyridin-4-yl)oxy)phenyl)propanoic acid level at 150 mg/kg, po after 4 hrs by LC-MS/MS method; format: ADME, organism-based; set-up: dose 150 mg/kg, route oral; settings: in vivo
[21] = Drug level in ICR mouse plasma at 150 mg/kg, po after 2 hrs by LC-MS/MS method; format: ADME, organism-based; set-up: dose 150 mg/kg, route oral
[22] = Drug level in ICR mouse plasma at 150 mg/kg, po after 2.5 hrs by LC-MS/MS method; format: ADME, organism-based; set-up: dose 150 mg/kg, route oral
[23] = Drug level in ICR mouse plasma at 150 mg/kg, po after 3.5 hrs by LC-MS/MS method; format: ADME, organism-based; set-up: dose 150 mg/kg, route oral
[24] = Drug level in ICR mouse bile at 150 mg/kg, po after 2 hrs by LC-MS/MS method; format: ADME, organism-based; set-up: dose 150 mg/kg, route oral; settings: read-out: Drug uptake
[25] = Drug level in ICR mouse bile at 150 mg/kg, po after 2.5 hrs by LC-MS/MS method; format: ADME, organism-based; set-up: dose 150 mg/kg, route oral; settings: read-out: Drug uptake
[26] = Drug level in ICR mouse bile at 150 mg/kg, po after 3.5 hrs by LC-MS/MS method; format: ADME, organism-based; set-up: dose 150 mg/kg, route oral; settings: read-out: Drug uptake
[27] = Drug level in ICR mouse gall bladder at 150 mg/kg, po after 2 hrs by LC-MS/MS method; format: ADME, organism-based; set-up: dose 150 mg/kg, route oral; settings: in vivo
[28] = Drug level in ICR mouse gall bladder at 150 mg/kg, po after 2.5 hrs by LC-MS/MS method; format: ADME, organism-based; set-up: dose 150 mg/kg, route oral; settings: in vivo
[29] = Drug level in ICR mouse gall bladder at 150 mg/kg, po after 3.5 hrs by LC-MS/MS method; format: ADME, organism-based; set-up: dose 150 mg/kg, route oral; settings: in vivo

Work on `O=C(c1cnccc1Oc1cc(Cl)ccc1Cl)N1CCN(C2CC2)c2ccccc21` yielded a Papp A→B at 20 µM (in vitro [1]) of 6.75 ×10⁻⁶ cm/s, a recovery at 20 µM (in vitro [2]) of 46.8% and a Papp B→A at 20 µM (in vitro [3]) of 5.58 ×10⁻⁶ cm/s. The recovery at 20 µM (in vitro [4]) was 69.4%.

`O=C(O)CNC(=O)CCc1cc(Cl)c(Oc2ccncc2C(=O)N2CCN(C3CC3)c3ccccc32)cc1Cl` showed a Tmax [5] of 0.44 h, a Tmax (Rattus norvegicus [6]) of 3.5 h and a Cmax [7] of 13.5 ng/mL. For the same compound, the Cmax (Rattus norvegicus [8]) was 15.5 ng/mL, the AUC(0-t) [9] was 23.9 ng·h/mL and the AUCt (Rattus norvegicus [10]) was 84.9 ng·h/mL. For the same compound, the AUC(0-inf) [11] was 39.7 ng·h/mL, the AUC (Rattus norvegicus [12]) was 241 ng·h/mL and the MRT [13] was 2.37 h. The MRT (Rattus norvegicus [14]) was 5.47 h, the half-life [15] was 1.56 h and the t1/2 (Rattus norvegicus [16]) was 1.77 h.

For `O=C(CCc1cc(Cl)c(Oc2ccncc2C(=O)N2CCN(C3CC3)c3ccccc32)cc1Cl)NCCOCCOCCOCCOCCOCCOCCOCCOCCNC(=O)CCc1cc(Cl)c(Oc2ccncc2C(=O)N2CCN(C3CC3)c3ccccc32)cc1Cl`, the Drug uptake (Rattus norvegicus [17]) was less than 3 ng/mL, the Drug metabolism (Rattus norvegicus [18]) was “metabolite_notdetected” and the Drug uptake [19] was less than 3 ng. The Drug metabolism [20] was “metabolite_notdetected”, the concentration at 2 h [21] was 4.4 nM and the concentration at 2.5 h [22] was 6.9 nM. The concentration at 3.5 h [23] was 2.9 nM, the concentration at 2 h [24] was 3.6 nM and the concentration at 2.5 h [25] was 3.5 nM. For the same compound, the concentration at 3.5 h [26] was 3.8 nM, the Drug uptake [27] was “Not Active” and the Drug uptake [28] was “Not Active”. For the same compound, the Drug uptake [29] was “Not Active”, the Papp A→B at 20 µM (in vitro [1]) was 0.04 ×10⁻⁶ cm/s and the recovery at 20 µM (in vitro [2]) was 99.5%. For the same compound, the Papp B→A at 20 µM (in vitro [3]) was 2.24 ×10⁻⁶ cm/s and the recovery at 20 µM (in vitro [4]) was 91.2%.

Compound `C[C@H]1O[C@@H](O[C@H]2[C@@H](O)C[C@H](O[C@H]3[C@@H](O)C[C@H](O[C@H]4CC[C@@]5(C)[C@H](CC[C@@H]6[C@@H]5C[C@@H](O)[C@]5(C)[C@@H](C7=CC(=O)OC7)CC[C@]65O)C4)O[C@@H]3C)O[C@@H]2C)C[C@H](O)[C@@H]1O` [DIGOXIN] has a Papp A→B at 20 µM (in vitro [1]) of 0.1 ×10⁻⁶ cm/s, a recovery at 20 µM (in vitro [2]) of 101% and a Papp B→A at 20 µM (in vitro [3]) of 15.8 ×10⁻⁶ cm/s. It also gave a recovery at 20 µM (in vitro [4]) of 95.8%.
